Reference: PMC7889895, “Crystal structure of a photosynthetic LH1-RC in complex with its electron donor HiPIP” (Nature Communications, 2021)

Biological target: T1, HiPIP (Thermochromatium tepidum, UniProt P80176)
T1 construct: gene hip; native, purified from cells by DEAE chromatography in the reduced state; co-crystallised with native LH1-RC; with Photosynthetic reaction center cytochrome c subunit
Experiment: X-ray crystal structure of HiPIP:LH1-RC co-complex, […] Å
Format: binding
Conditions: pH 5; 4Fe-4S cluster ligated by Cys; HiPIP purified in reduced state; bound to LH1-RC

T1 sequence (P80176 whole entry, other chains not shown): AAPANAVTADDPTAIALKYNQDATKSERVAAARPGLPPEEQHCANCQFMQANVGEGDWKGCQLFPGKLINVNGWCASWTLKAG

[S]12[Fe]3[S]4[Fe]1[S]1[Fe]2[S]3[Fe]41 [4Fe-4S cluster]
X-ray crystal structure of HiPIP:LH1-RC co-complex, 2.9 Å: Fe atoms in both hemes and the 4Fe-4S cluster were clearly resolved
